Data taken from patent US7919274B2, “Light-emitting fusion proteins and diagnostic and therapeutic methods therefor” (Dana-Farber Cancer Institute, Inc., priority 2001, dated 2011).
Each block holds one substance with its values, some of them ahead of it. Ends that are not written are not given here.

Key:
HA-pVHL bound HIF = target: T1, HA-pVHL bound HIF (Homo sapiens, UniProt P40337); test: Peptide elution of HIF coimmunoprecipitated with HA-pVHL from ts20 cells; format: binding; conditions: 7 μg peptide in 65 μl PBS
T1 construct: expressed in transfected cells; host or cells: ts20 cells stably transfected with pIRES-HA-VHL, G418-selected
T1 sequence (P40337 whole entry): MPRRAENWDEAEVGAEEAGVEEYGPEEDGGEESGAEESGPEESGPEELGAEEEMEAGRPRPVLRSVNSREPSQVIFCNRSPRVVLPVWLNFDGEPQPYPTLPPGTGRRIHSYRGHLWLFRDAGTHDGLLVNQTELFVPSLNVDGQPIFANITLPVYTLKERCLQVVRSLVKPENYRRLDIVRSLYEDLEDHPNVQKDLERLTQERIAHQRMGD
T1 sequence (P62869 whole entry partner): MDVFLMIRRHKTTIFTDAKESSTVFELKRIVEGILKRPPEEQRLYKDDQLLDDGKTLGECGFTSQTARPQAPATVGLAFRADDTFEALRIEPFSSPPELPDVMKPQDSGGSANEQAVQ
T1 sequence (P83940 whole entry partner): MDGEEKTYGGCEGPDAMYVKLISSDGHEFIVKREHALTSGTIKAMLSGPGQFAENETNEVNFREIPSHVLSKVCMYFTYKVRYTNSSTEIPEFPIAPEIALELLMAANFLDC
Experimental: Individual G418-resistant colonies were isolated using cloning cylinders and expanded. Cells producing HA-VHL or HA-VHL (Y98H) were identified by anti-HA immunoblot analysis. […] For the tests shown in FIG. 5C, ts20 cells were grown at the restrictive or permissive temperature for 14 hours, methionine-starved for 90 min, and then grown in the methionine-free media supplemented with ^35S-met ([…]) for 90 min.

[1] = In vitro degradation assay with xenopus egg extracts; format: biochemical; conditions: room temperature
Experimental: Xenopus egg extracts were made as is well known in the art and stored frozen until use. Degradation reactions contained 8 μl of egg extract, 0.1 μl of 100 mg/ml cyclohexamide, 0.25 μl of energy regeneration mix, 0.25 μl of bovine ubiquitin, and 0.4 μl of ^35S-radiolabeled HIF and were carried out at room temperature. At the indicated timepoints 1 μl aliquots were removed and placed in sample buffer. Samples were resolved on 5-15% gradient gels and analyzed by autoradiography. Biotinylated HIF (556-575) peptides were incubated with rabbit reticulocyte lysate, washed, eluted with free biotin, and analyzed by mass spectrometry. 1 μg of HPLC-purified peptide was bound to 30 μl monomeric avidin Sepharose and incubated with 100 μl of rabbit reticulocyte lysate at room temperature for 1 hour with tumbling. Following brief centrifugation the reticulocyte lysate was removed, fresh reticulocyte lysate was added, and the cycle was repeated 6 times. The Sepharose was then washed 4 times with NETN and once with PBS. The modified peptide was eluted in 50 μl of 20 mM ammonium acetate [pH 7.0], 2 mM biotin. […] This peak was not detectable prior to incubation with reticulocyte lysate and was not detected in the corresponding reticulocyte-treated Leu562Ala and Pro564Ala peptides (FIG. 6A). […] Following visualization of standards with ninhydrin radiolabeled proline was detected by autoradiography. […]

COS7 cells = test: Anti-HA immunoblot of transiently transfected COS7 cells; format: cell-based
Experimental: (A) depicts in vitro ubiquitination of ^35S-labeled wild-type, Leu562A, and Pro564A Gal4-HA-HIF1α (530-652) in the presence of S100 extracts prepared from pVHL-defective renal carcinoma cells stably transfected to produce wild-type pVHL or with empty vector. […] (C) is an anti-HA immunoblot analysis of COS7 cells transiently transfected with 1.5 or 3.5 μg of plasmids encoding wild-type or P564A HA-HIF1α in the absence or presence of desferoxamine.

[2] = Luciferase activity of in vitro translate; format: biochemical; conditions: versus wild-type luciferase
[3] = tested on: Hela cells xenograft tumors; test: Imaging of ODD-Luc in xenograft tumors in nude mice; format: in vivo; conditions: subcutaneous Hela tumors, versus Luc sites
Experimental: Polyclonal Hela cells stably transfected with ODD-Luc and Luc were generated. The clones were suspended in PBS and counted. 10^6 cells per injection site were administered subcutaneously in duplicate into the flanks of nude mice (FIG. 18). Upon growth of palpable tumors (approximately 3-4 days) the mice were given intraperitoneal injections of phenobarbital for anesthesia, injected with a weight-adjusted dose of luciferin, and whole body imaged with a Xenogen Camera. To ensure that the difference in luciferase activity was not simply a function of tumor size alone, bidimensional tumor measurements were taken and were approximately equal.

HeLa cells = test: Luciferase activity in transiently transfected HeLa cells; format: cell-based
Experimental: To begin to ask whether the ODD-Luc was oxygen sensitive in cells, transient transfection assays were performed. In the first set of experiments, 100 mm tissue culture plates were seeded with 8×10^5 HeLa cells per plate. Eighteen hours later the cells were transiently transfected, using lipofectamine (Gibco), with the pcDNA3 plasmids encoding ODD-Luc or wild-type Luc along with an internal control plasmid encoding Renilla luciferase. Twenty-four hours after transfection the cells were split into 6 well plates and allowed to adhere and grow for 8-12 hours. At this point the hypoxia mimetics desferrioxamine (DFO) or cobalt chloride (CoCl2) were added directly to the media at final concentrations of 500 μM and 200 μM respectively, in duplicate wells. In addition, some wells were not treated so as to serve as controls. 12 hours after treatment with DFO and CoCl2 the cells were lysed with Passive Lysis Buffer (Promega), rocked at room temperature for 20 minutes, and assayed for Firefly and Renilla Luciferase according to the manufacturers instructions. Results were obtained in duplicate and averaged. (FIG. 17). Luciferase activity in HeLa cells containing pcDNA3 plasmids encoding wild-type Luc are presented in the first three bars from the left; while luciferase activity in HeLa cells containing pcDNA3 plasmids encoding ODD-Luc are presented in the fourth through sixth bars from the left.

[4] = target: T2, pVHL (GST-VHL, elongin B, elongin C complex) (Homo sapiens, UniProt P40337); test: VBC-GST pulldown of 35S-labeled in vitro translated proteins; format: binding
T2 construct: made in house; host or cells: E. coli
T2 sequence (P40337 whole entry): as the sequence (P40337 whole entry) above
T2 sequence (Q15370 whole entry partner): as the sequence (P62869 whole entry partner) above, with E40D, R89C, G110S counted along it
T2 sequence (Q15369 whole entry partner): as the sequence (P83940 whole entry partner) above

[5] = tested on: TETo-driven luciferase reporter plasmid (pUHC13-3); test: TETr-fusion transcriptional luciferase reporter gene assay in U2OS cells; format: cell-based, human; conditions: pUHC13-3 reporter
Experimental: (A) is a schematic of reporter plasmid (pUHC 13-3) that contains seven TETracycline operator sequences (TETo) upstream of a minimal CMV promoter that includes a TATA box. (B, C) show U2OS cells were cotransfected with plasmids encoding the indicated TETr fusion proteins along with the pUHC 13-3 reporter plasmid and a plasmid encoding β-galactosidase. Numbers shown at the bottom of the graph indicate the amount of TETr plasmid (in μg). 48 hours later luciferase activity, normalized for β-galactosidase, was determined. Fold repression is the corrected luciferase value for TETr alone divided by the corrected luciferase values for the indicated TETr fusion proteins. Fold activation represents the corrected luciferase values for the indicated TETr fusion proteins divided by the corrected luciferase value for TETr alone. […]
For TETr-fusion transcriptional assay, subconfluent U2OS cells were transiently transfected in 6-well plates in duplicate with 1 μg of […], 1 μg of pUHC13-3 reporter plasmid, and 3 μg of the indicated plasmids encoding TETr-fusion proteins. […] 48 hours after transfection luciferase activity and β-galactosidase activity was determined as described previously (Qin, 1995).

pRB = pRB phosphorylation in pRB-defective SAOS-2 cells; format: cell-based, human; conditions: cointroduced with HA-tagged pRB into SAOS-2 cells
Experimental: FIG. 8 illustrates the production of TETr-cyclins A and E. (A) is a schematic of TETr-cyclin fusion protein. […] The % of transfected cells in G1 and S phase was determined by fluororescence activated cell sorting (FACS).
(§1) FIG. 11 illustrates that cyclin box is required for transcriptional repression by DNA bound cyclin A. (A) U2OS cells were cotransfected with plasmids encoding the indicated TETr-cyclin A variants along with the pUHC 13-3 reporter plasmid and a plasmid encoding β-galactosidase. Cell extracts were prepared and luciferase activity, corrected for β-galactosidase activity, was expressed as fold repression relative to cells producing TETr alone. (B) The indicated TETr-cyclin A variants were translated in vitro in the presence of ^35S-methionine and incubated with GST-cdk2 and glutathione Sepharose. […] In parallel, 20% of the input proteins were resolved by SDS-polyacrylamide gel electrophoresis and detected by autoradiography. (c) pRB defective SAOS-2 cells transfected so as to produce HA-tagged pRB along with the indicated TETr-cyclin A variants were lysed and immunoblotted with anti-HA antibody.

cdk2 = target: T3, cdk2 (Homo sapiens, UniProt P24941); test: GST pull-down assay with GST-cdk2; format: binding; conditions: 35S-labeled in vitro translates
T3 construct: made in house
Experimental: as §1
Glutathione S-transferase pull-down assays were performed basically as described previously (Kaelin et al., 1991). Binding reactions contained 10 μl of ^35S-radiolabelled in vitro translates made with a TNT kit (Promega) and approximately 1 μg of the indicated GST fusion protein in 1 ml of NETN (20 mM Tris [pH 8], 100 mM NaCl, 1 mM EDTA, 0.5% Nonidet P-40). Following 1 hour incubation at 4° C. with rocking, the Sepharose was washed 5 times with NETN. […]

elution of HIF bound to HA-pVHL (HA-pVHL bound HIF): not eluted
Substance: HIF (556-575) Pro564Ala peptide: HIF (556-575) peptide with Pro564Ala substitution (DLDLEMLAAYIPMDDDFQLR)

Substance: HIF1α Leu562Ala: HIF1α with Leu562Ala mutation
stability relative to wild-type HIF1α [1]: far more stable

Substance: HIF1α Pro564Ala: HIF1α with Proline 564 converted to alanine
stability relative to wild-type HIF1α [1]: far more stable
sensitivity to the hypoxia-mimetic desferoxamine (COS7 cells): insensitive

luciferase activity in vitro [2]: comparable to wild-type luciferase
binding of pVHL (GST-VBC pulldown) ([4]; translated in vitro in rabbit reticulocyte lysate): bound
binding of pVHL (GST-VBC pulldown) ([4]; wheat germ produced): did not bind
Substance: ODD-Luc: Firefly luciferase fused in-frame to HIF1α amino acids 555-575 (ODD) (TDLDLEMLAPYIPMDDDFQLR; also: fused to firefly luciferase (not shown))
luciferase signal at injection sites (whole body imaging) [3]: attenuated luciferase signal
induced luciferase levels versus wild-type luciferase (HeLa cells; after addition of hypoxia-mimetics): comparable
luciferase values relative to wild-type Luc (HeLa cells; untreated HeLa cells grown in the presence of oxygen): approximately 30%

Substance: Cyclin A (1-310): cyclin A fragment 1-310 fused to TETr
transcriptional effect on TETo-driven luciferase reporter [5]: repressed transcription
pRB phosphorylation (pRB): cannot direct the phosphorylation of pRB
binding to cdk2 (cdk2): does not bind to cdk2
